Source: patent publication US9855268B2, “Triazolo[4,5-d]pyrimidine derivatives” (Merck Patent GmbH, priority 2013, dated 2018)

Tests used:
Type in all cases: biochemical
[1] = biological target: GSK3α(h) (Homo sapiens, UniProt P49840); assay: GSK3α radiometric kinase assay (33P-ATP, phospho GS2 peptide); details: read-out: IC50 GSK3α (enzyme assay)
How it was run: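 Human GSK3α incubated with 20 μM phospho-GS2 peptide in 8 mM MOPS pH 7,0, 10 mM Mg-acetate and [γ-33P]ATP (concentration as required), started with MgATP. After 40 minutes at room temperature, stopped with phosphoric acid; 33P incorporation measured by filtermat spotting and scintillation counting.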

[2] = biological target: GSK3β(h) (Homo sapiens, UniProt P49841); assay: GSK3β radiometric kinase assay (33P-ATP, phospho GS2 peptide); details: read-out: IC50 GSK3β (enzyme assay)
Method: GSK3β(h) is incubated with 8 mM MOPS pH 7,0, 0,2 mM EDTA, 20 μM
[…](p)EDEEE (phosphor GS2 peptide), 10 mM Mg-acetate and [gamma-33P-ATP](specific activity approx. 500 cpm/Pmol, concentration as required). The reaction is initiated by the addition of the MgATP. After incubation for 40 minutes at the room temperature, the Reaction is stopped by the addition of 3% phosphoric acid solution. 10 μL of reaction is then spotted onto a P30 filtermat and washed three times for 5 minutes in 50 mM phosphoric acid and once in methanol prior to drying and scintillation counting.

[3] = biological target: GCN2 (Homo sapiens, UniProt Q9P2K8); assay: GCN2 enzyme assay (TR-FRET Lanthascreen, GFP-eIF2alpha phosphorylation); details: 10 μM ATP, 80 nM GFP-eIF2a, 30 nM GCN2
How it was run: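 Kinase reaction with 10 μM ATP and 80 nM GFP-labelled eIF2alpha substrate at room temperature, stopped with EDTA. Phospho-eIF2alpha detected by TR-FRET between antibody and GFP-substrate, excitation at 340 nm.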

Sequence of GSK3α(h) (P49840 whole entry): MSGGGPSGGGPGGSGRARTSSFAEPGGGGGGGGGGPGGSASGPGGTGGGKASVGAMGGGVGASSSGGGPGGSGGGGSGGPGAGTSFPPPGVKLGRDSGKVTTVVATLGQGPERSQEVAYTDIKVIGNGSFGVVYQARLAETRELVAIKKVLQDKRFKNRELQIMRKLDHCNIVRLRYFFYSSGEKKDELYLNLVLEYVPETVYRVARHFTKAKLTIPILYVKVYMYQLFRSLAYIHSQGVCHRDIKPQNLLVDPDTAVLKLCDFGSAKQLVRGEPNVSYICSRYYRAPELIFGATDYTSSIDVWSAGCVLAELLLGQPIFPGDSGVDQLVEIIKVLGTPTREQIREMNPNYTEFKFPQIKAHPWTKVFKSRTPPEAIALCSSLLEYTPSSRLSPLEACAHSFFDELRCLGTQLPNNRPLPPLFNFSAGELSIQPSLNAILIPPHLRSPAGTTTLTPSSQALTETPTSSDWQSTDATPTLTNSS
Sequence of GCN2 (Q9P2K8 whole entry, species assumed): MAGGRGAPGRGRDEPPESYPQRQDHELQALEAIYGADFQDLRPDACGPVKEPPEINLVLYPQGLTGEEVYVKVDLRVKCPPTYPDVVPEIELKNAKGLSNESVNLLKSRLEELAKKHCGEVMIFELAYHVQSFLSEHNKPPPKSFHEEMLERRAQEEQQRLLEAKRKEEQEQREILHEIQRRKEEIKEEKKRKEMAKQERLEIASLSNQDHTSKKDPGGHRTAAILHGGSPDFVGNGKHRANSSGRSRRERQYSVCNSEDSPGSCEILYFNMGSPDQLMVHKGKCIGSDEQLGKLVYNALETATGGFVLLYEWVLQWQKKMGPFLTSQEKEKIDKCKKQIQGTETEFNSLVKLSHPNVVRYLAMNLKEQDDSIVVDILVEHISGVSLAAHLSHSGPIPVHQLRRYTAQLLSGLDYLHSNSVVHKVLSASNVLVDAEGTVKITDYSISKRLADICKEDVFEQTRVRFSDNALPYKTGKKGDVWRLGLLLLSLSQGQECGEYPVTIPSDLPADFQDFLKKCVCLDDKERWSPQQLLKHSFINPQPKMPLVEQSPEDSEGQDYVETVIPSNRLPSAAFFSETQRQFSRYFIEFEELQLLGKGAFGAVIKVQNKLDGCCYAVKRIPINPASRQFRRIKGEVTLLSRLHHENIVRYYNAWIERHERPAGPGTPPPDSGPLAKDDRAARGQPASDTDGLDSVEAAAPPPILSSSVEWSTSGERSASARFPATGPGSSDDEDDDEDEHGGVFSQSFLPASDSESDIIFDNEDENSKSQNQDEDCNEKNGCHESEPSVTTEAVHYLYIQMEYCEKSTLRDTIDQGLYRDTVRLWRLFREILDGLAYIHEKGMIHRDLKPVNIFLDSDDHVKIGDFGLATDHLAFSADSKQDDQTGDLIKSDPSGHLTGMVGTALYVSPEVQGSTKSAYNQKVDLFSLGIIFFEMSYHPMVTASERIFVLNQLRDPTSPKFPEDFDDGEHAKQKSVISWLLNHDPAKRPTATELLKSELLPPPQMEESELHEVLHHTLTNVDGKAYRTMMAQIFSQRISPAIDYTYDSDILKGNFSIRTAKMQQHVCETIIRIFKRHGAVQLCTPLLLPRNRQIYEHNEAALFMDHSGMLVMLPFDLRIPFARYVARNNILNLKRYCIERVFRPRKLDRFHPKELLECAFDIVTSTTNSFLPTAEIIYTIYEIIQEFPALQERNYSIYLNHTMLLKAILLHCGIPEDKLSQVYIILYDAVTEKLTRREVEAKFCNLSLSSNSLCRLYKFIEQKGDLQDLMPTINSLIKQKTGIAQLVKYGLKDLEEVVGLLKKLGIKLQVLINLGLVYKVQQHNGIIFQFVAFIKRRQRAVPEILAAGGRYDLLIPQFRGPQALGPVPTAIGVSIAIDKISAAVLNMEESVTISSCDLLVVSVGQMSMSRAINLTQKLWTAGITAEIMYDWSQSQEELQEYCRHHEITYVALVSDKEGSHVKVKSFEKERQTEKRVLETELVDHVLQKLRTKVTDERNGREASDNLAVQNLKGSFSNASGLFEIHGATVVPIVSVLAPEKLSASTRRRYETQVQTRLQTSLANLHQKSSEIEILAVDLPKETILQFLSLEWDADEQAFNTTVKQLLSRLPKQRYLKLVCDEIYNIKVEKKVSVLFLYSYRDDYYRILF
Sequence of GSK3β(h) (P49841 whole entry): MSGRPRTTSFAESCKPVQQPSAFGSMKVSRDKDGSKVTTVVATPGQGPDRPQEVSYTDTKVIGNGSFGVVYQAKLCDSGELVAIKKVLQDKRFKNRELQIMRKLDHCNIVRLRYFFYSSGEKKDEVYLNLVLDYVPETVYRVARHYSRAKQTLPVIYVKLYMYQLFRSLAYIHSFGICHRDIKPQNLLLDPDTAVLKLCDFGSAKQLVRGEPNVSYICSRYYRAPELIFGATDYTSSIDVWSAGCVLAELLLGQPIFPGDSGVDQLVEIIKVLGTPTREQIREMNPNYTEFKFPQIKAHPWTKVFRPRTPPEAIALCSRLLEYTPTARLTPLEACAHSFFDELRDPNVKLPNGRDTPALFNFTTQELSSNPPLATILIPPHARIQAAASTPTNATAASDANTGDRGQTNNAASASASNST

Row | SMILES | IC50 [1] [nM] | IC50 [2] [nM] | IC50 [3] [nM]
1 | COCCn1cc(-c2ccc(-n3nnc4cnc(N[C@@H]5CC[C@@H](C(N)=O)C5)nc43)nc2)cn1 [A219, (1R,3R)-3-(3-{5-[1-(2-methoxy-ethyl)-1H-pyrazol-4-yl]-pyridin-2-yl}-3H-[1,2,3]triazolo[4,5-d]pyrimidin-5-ylamino)-cyclopentanecarboxylic acid amide] | < 1000 | < 1000 | 1000 to 5000
2 | COCCn1cc(-c2cccc(-n3nnc4cnc(N[C@@H]5CC[C@@H](C(N)=O)C5)nc43)c2)cn1 [A222, (1R,3R)-3-(3-{3-[1-(2-methoxy-ethyl)-1H-pyrazol-4-yl]-phenyl}-3H-[1,2,3]triazolo[4,5-d]pyrimidin-5-ylamino)-cyclopentanecarboxylic acid amide] | < 1000 | < 1000 | < 1000
3 | CCOCCn1cc(-c2ccc(-n3nnc4cnc(N[C@@H]5CC[C@@H](C(N)=O)C5)nc43)cn2)cn1 [A229, (1R,3R)-3-(3-{6-[1-(2-ethoxy-ethyl)-1H-pyrazol-4-yl]-pyridin-3-yl}-3H-[1,2,3]triazolo[4,5-d]pyrimidin-5-ylamino)-cyclopentanecarboxylic acid amide] | < 1000 | < 1000 | < 1000
4 | CC(C)(O)Cn1cc(-c2ccc(-n3nnc4cnc(N[C@@H]5CC[C@@H](C(N)=O)C5)nc43)cc2)cn1 [A233, (1R,3R)-3-(3-{4-[1-(2-hydroxy-2-methyl-propyl)-1H-pyrazol-4-yl]-phenyl}-3H-[1,2,3]triazolo[4,5-d]pyrimidin-5-ylamino)-cyclopentanecarboxylic acid amide] | < 1000 | < 1000 | < 1000
5 | NC(=O)[C@@H]1CC[C@@H](Nc2ncc3nnn(-c4ccc(-c5cnn(CCn6ncccc6=O)c5)cc4)c3n2)C1 [A237, (1R,3R)-3-[3-(4-{1-[2-(6-oxo-6H-pyridazin-1-yl)-ethyl]-1H-pyrazol-4-yl}-phenyl)-3H-[1,2,3]triazolo[4,5-d]pyrimidin-5-ylamino]-cyclopentanecarboxylic acid amide] | < 1000 | < 1000 | < 1000
6 | CS(=O)(=O)N1CC[C@@H](Nc2ncc3nnn(-c4ccc5ncccc5c4)c3n2)C1 [A269, ((R)-1-methanesulfonyl-pyrrolidin-3-yl)-(3-quinolin-6-yl-3H-[1,2,3]triazolo[4,5-d]pyrimidin-5-yl)-amine] | < 1000 | < 1000 | < 1000
7 | NC(=O)[C@@H]1CC[C@@H](Nc2ncc3nnn(-c4ccc(OCC5CCNCC5)cc4)c3n2)C1 [A279, (1R,3R)-3-{3-[4-(piperidin-4-ylmethoxy)-phenyl]-3H-[1,2,3]triazolo[4,5-d]pyrimidin-5-ylamino}-cyclopentanecarboxylic acid amide] | < 1000 | < 1000 | < 1000
8 | CCOc1ccc(-n2nnc3cnc(N[C@@H]4CC[C@@H](c5nnc(C)o5)C4)nc32)cc1 [A281, [3-(4-ethoxy-phenyl)-3H-[1,2,3]triazolo[4,5-d]pyrimidin-5-yl]-[(1R,3R)-3-(5-methyl-[1,3,4]oxadiazol-2-yl)-cyclopentyl]-amine] | < 1000 | < 1000 | < 1000
9 | CCOc1ccc(-n2nnc3cnc(N[C@@H]4CC[C@@H](c5nnc(N)o5)C4)nc32)cc1 [A283, [(1R,3R)-3-(5-amino-[1,3,4]oxadiazol-2-yl)-cyclopentyl]-[3-(4-ethoxy-phenyl)-3H-[1,2,3]triazolo[4,5-d]pyrimidin-5-yl]-amine] | < 1000 | 1000 to 5000 | < 1000
10 | COc1ccc(-n2nnc3cnc(N[C@@H]4CCN(C(N)=O)C4)nc32)cc1 [A285, (R)-3-[3-(4-Methoxy-phenyl)-3H-[1,2,3]triazolo[4,5-d]pyrimidin-5-ylamino]-pyrrolidine-1-carboxylic acid amide] | < 1000 | 1000 to 5000 | < 1000
11 | CCOc1ccc(-n2nnc3cnc(N[C@@H]4CC[C@@H](C(=O)NS(C)(=O)=O)C4)nc32)cc1 [A286, N-{(1R,3R)-3-[3-(4-ethoxy-phenyl)-3H-[1,2,3]triazolo[4,5-d]-pyrimidin-5-ylamino]-cyclopentanecarbonyl}-methanesulfonamide] | < 1000 | < 1000 | < 1000

Continued, values first:

Row | IC50 [1] [nM] | IC50 [2] [nM] | IC50 [3] [nM] | SMILES
12 | < 1000 | < 1000 | < 1000 | COc1ccc(-n2nnc3cnc(N[C@@H]4CC[C@H](C(N)=O)C4)nc32)cc1 [A136, (1S,3R)-3-[3-(4-methoxy-phenyl)-3H-[1,2,3]triazolo[4,5-d]pyrimidin-5-ylamino]-cyclopentanecarboxylic acid amide]
13 | < 1000 | < 1000 | < 1000 | COc1ccc(-n2nnc3cnc(N[C@H]4CC[C@H](C(N)=O)C4)nc32)cc1 [A137, (1S,3S)-3-[3-(4-methoxy-phenyl)-3H-[1,2,3]triazolo[4,5-d]pyrimidin-5-ylamino]-cyclopentanecarboxylic acid amide]
14 | < 1000 | < 1000 | < 1000 | COc1ccc(-n2nnc3cnc(N[C@H]4C[C@H](C(N)=O)C4)nc32)cc1 [A145, (trans)-3-[3-(4-methoxy-phenyl)-3H-[1,2,3]triazolo[4,5-d]pyrimidin-5-ylamino]-cyclobutanecarboxylic acid amide]
15 | < 1000 | < 1000 | < 1000 | NC(=O)[C@@H]1CC[C@@H](Nc2ncc3nnn(-c4ccc(N5CCCC5)cc4)c3n2)C1 [A146, (1R,3R)-3-[3-(4-pyrrolidin-1-yl-phenyl)-3H-[1,2,3]triazolo[4,5-d]pyrimidin-5-ylamino]-cyclopentanecarboxylic acid amide]
16 | < 1000 | < 1000 | < 1000 | NC(=O)[C@@H]1CC[C@@H](Nc2ncc3nnn(-c4ccc5c(c4)OCCO5)c3n2)C1 [A156, (1R,3R)-3-[3-(2,3-dihydro-benzo[1,4]dioxin-6-yl)-3H-[1,2,3]triazolo[4,5-d]pyrimidin-5-ylamino]-cyclopentanecarboxylic acid amide]
17 | < 1000 | < 1000 | < 1000 | COCCn1cc(-n2nnc3cnc(N[C@@H]4CC[C@@H](C(N)=O)C4)nc32)cn1 [A159, (1R,3R)-3-{3-[1-(2-methoxy-ethyl)-1H-pyrazol-4-yl]-3H-[1,2,3]triazolo[4,5-d]-pyrimidin-5-ylamino}-cyclopentanecarboxylic acid amide]
18 | < 1000 | < 1000 | < 1000 | NC(=O)[C@@H]1CC[C@@H](Nc2ncc3nnn(-c4ccc(OCCn5cccn5)cc4)c3n2)C1 [A160, (1R,3R)-3-{3-[4-(2-pyrazol-1-yl-ethoxy)-phenyl]-3H-[1,2,3]triazolo[4,5-d]-pyrimidin-5-ylamino}-cyclopentanecarboxylic acid amide]
19 | < 1000 | < 1000 | < 1000 | NC(=O)[C@@H]1CC[C@@H](Nc2ncc3nnn(-c4ccc(I)cn4)c3n2)C1 [A177, (1R,3R)-3-[3-(5-iodo-pyridin-2-yl)-3H-[1,2,3]triazolo[4,5-d]pyrimidin-5-ylamino]-cyclopentanecarboxylic acid amide]
20 | < 1000 | < 1000 | < 1000 | CCOc1ccc(-n2nnc3cnc(N[C@@H]4CC[C@@H](C(N)=O)C4)nc32)nc1 [A178, (1R,3R)-3-[3-(5-ethoxy-pyridin-2-yl)-3H-[1,2,3]triazolo[4,5-d]pyrimidin-5-ylamino]-cyclopentanecarboxylic acid amide]
21 | < 1000 | < 1000 | < 1000 | CCOc1ccc(-n2nnc3cnc(N[C@@H]4CC[C@@H](C(N)=O)C4)nc32)cn1 [A179, (1R,3R)-3-[3-(6-ethoxy-pyridin-3-yl)-3H-[1,2,3]triazolo[4,5-d]pyrimidin-5-ylamino]-cyclopentanecarboxylic acid amide]
22 | < 1000 | < 1000 | < 1000 | COc1ccc2cc(-n3nnc4cnc(N[C@@H]5CC[C@@H](C(N)=O)C5)nc43)ccc2n1 [A181, (1R,3R)-3-[3-(2-methoxy-quinolin-6-yl)-3H-[1,2,3]triazolo[4,5-d]pyrimidin-5-ylamino]-cyclopentanecarboxylic acid amide]
23 | < 1000 | < 1000 | < 1000 | Cc1nc2cc(-n3nnc4cnc(N[C@@H]5CC[C@@H](C(N)=O)C5)nc43)ccc2n1C [A183, (1R,3R)-3-[3-(1,2-dimethyl-1H-benzimidazol-5-yl)-3H-[1,2,3]triazolo[4,5-d]-pyrimidin-5-ylamino]-cyclopentanecarboxylic acid amide]
24 | < 1000 | < 1000 | < 1000 | NC(=O)[C@@H]1CC[C@@H](Nc2ncc3nnn(-c4ccc5ncccc5n4)c3n2)C1 [A194, (1R,3R)-3-(3-[1,5]naphthyridin-2-yl-3H-[1,2,3]triazolo[4,5-d]pyrimidin-5-ylamino)-cyclopentanecarboxylic acid amide]
25 | < 1000 | < 1000 | < 1000 | N#CCCn1cc(-c2ccc(-n3nnc4cnc(N[C@@H]5CC[C@@H](C(N)=O)C5)nc43)cc2)cn1 [A217, (1R,3R)-3-(3-{4-[1-(2-cyano-ethyl)-1H-pyrazol-4-yl]-phenyl}-3H-[1,2,3]triazolo[4,5-d]pyrimidin-5-ylamino)-cyclopentanecarboxylic acid amide]
